Assay in all cases: NCI tumour cell line growth inhibition, 48 h
In test [1] the test system is MDA-N.
For test [2], the system named is DMS 273 small cell lung.
Test [3] concerns HOP-18 NSCLC.
The subject of test [4] is KM20L2 colon.
Test [5] has as its system LXFL 529 NSCLC.
For test [6], the system named is DMS 114 small cell lung.
In test [7] the test system is M19-MEL melanoma.
For test [8], the system named is RXF-631 renal.
Test [9] relates to XF 498 CNS.
For test [10], the system named is SN12K1 renal.

SMILES strings stand for the structures. “And” between values parts separate entries of the source, which are not always exact repeats. Equal entries are not always repeated.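 96-well plates; 48 h exposure; 5 concentrations. Endpoints by linear interpolation between flanking doses. Not reached: highest tested concentration assigned. GI50 = concentration required for 50% inhibition of growth. TGI is the concentration that stops growth completely.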

As to `NC(=O)/C=C/NC(=O)/C=N\O`, in test [1], the TGI is > 100 µM.
On to `CCC(C(=O)[O-])C(=O)[O-].CCC(C(=O)[O-])C(=O)[O-].N.N.NCCCCCCN.[Pt+4].[Pt+4]`, for which the GI50 in test [2] was 8.32 µM; in [3] it was 4.92 µM; in test [4], 15 µM; in test [5], 2.37 µM. Also, the TGI stood at 16.4 µM in test [2], 11.5 µM in test [3], 29 µM in test [4] and 5.12 µM in [5].
For the molecule `C[C@H]1C(Oc2ccc(O)cc2)OC2OC3(C)CCC4[C@H](C)CCC1C24OO3` (some centres not stated), in test [1], the GI50 was 11.1 µM and the TGI stood at 26.4 µM.
Consider `CCc1nc(Cl)nc(Cl)c1Cl`, for which the TGI in test [1] came to 15.2 µM.
Turning to `CC/C(C)=C1\OC(=O)C(C)C(O)C(Cc2cccnc2)NC(=O)C(NC(=O)c2ncccc2O)C(C)OC1=O` (configuration not stated), the TGI in [1] was > 100 µM.
As to `Cc1ccc(C)c(NC(=O)CCc2nc(=S)[nH][nH]2)c1`, the TGI in [6], in test [2], in [3], in [4], in [5] and in test [7] was > 100 µM throughout. Further, the TGI in test [8] and in test [9] was > 100 µM in each case.
Turning to `Cn1c(=S)c2[nH]c(SCCN3CCCC3)nc2n(C)c1=O`, in test [1], the TGI is > 100 µM.
On to `O=C(O)Cn1c(=O)[nH]c(=O)c2c1ncn2Cc1ccccc1`, for which the TGI in [6], in test [2], in test [4], in test [5], in [7] and in test [8] was > 100 µM in each case. The TGI in test [9] is > 100 µM.
On to `O=C1c2c(O)cc(O)cc2OC(c2ccc(O)cc2O)C1O` (configuration not stated), for which the TGI in test [1] was > 100 µM.
Regarding `CC(C)(C)C(=O)O[C@@H]1COC2C(O)COC21` (some centres not stated), the TGI in test [6], in [2], in [3], in test [5], in test [7] and in test [8] was > 100 µM throughout. The TGI in [9] is > 100 µM.
Regarding `CN(C)c1ccc(/C=N\N2C(=O)c3ccccc3C2=O)cc1`, the TGI in test [6], in test [2], in test [3], in [4], in [5] and in test [7] was > 100 µM in each case. For the same molecule, the TGI in [9] is > 100 µM.
Take `CC(=O)[O-].O=C([CH-]C(=O)c1ccccc1)c1ccccc1.O=C([CH-]C(=O)c1ccccc1)c1ccccc1.[Y+3]`: in test [4], the GI50 was 6.51 µM and the TGI was found to be 26.3 µM.
As to `N#CC1(C=O)c2ccccc2C=CN1C(=O)c1ccccc1` (configuration not stated), the TGI in test [6] was 49 µM; in test [2] it was > 100 µM; in test [3] it was > 100 µM; in test [4] it was > 100 µM; in [5], > 100 µM; in [7], > 100 µM. Further, the TGI in [8] is > 100 µM; in test [9] it was 69.6 µM.
Regarding `COCCOCC(=O)N(CCn1ccc(NC(c2ccccc2)(c2ccccc2)c2ccccc2)nc1=O)CCn1cnc2nc(N)[nH]c(=O)c21`, the TGI in [6], in [2], in [3], in test [4], in test [5] and in [8] was > 100 µM in each case.
Take `Cc1nc(Nc2ccc([N+](=O)[O-])cc2)sc1C(/C=C/c1ccc(N(C)C)cc1)=N/NC(=O)c1ccccc1`: the TGI in test [6], in test [3], in [4], in test [5], in test [7] and in test [8] was > 100 µM in each case. Further, the TGI in test [9] is > 100 µM.
As for `O=C(NNC(=O)c1cc(/C=C/c2cccc([N+](=O)[O-])c2)[nH]c(=S)n1)Nc1ccc(Cl)cc1`, the TGI in [6] is 97.4 µM; in test [2] it was > 100 µM; in test [3] it was > 100 µM; in test [4] it was > 100 µM; in [5], > 100 µM; in test [7], > 100 µM. Also, the TGI in test [9] amounted to 81.4 µM.
For the molecule `O=C1C2c3[nH]c4ccccc4c3[C@@H]3CCCCC3C2C(=O)N1c1ccccc1` (some centres not stated), the TGI in test [6] worked out at 58.4 µM; in test [2] it was 35.3 µM; in test [5], 39.6 µM; in [7], 34.8 µM; in [8], 34.2 µM.
As for `COC(OC)[C@@H](C)[C@H](O)[C@](C)(O)C1OC(C)(C)OC(C(C)C=C(C)C)C1C` (some centres not stated), the TGI in [6], in test [2], in [3], in test [4], in [5] and in test [7] was > 100 µM throughout. Moreover, the TGI in test [9] is > 100 µM.
As for `COc1cccc2[nH]c(-c3ccccn3)nc12`, the TGI in [1] was > 100 µM.
With `O=[N+]([O-])c1ccc(Sc2c3ccccc3nc3ccccc23)nc1`, the TGI in test [1] came out at 17.6 µM.
Turning to `c1ccc(COCC2OC3c4ccccc4COC3C2OCc2ccccc2)cc1` (configuration not stated), the TGI in test [6], in [2], in test [3], in test [4], in test [7] and in [8] was > 100 µM in each case.
Turning to `O=C1/C(=C/c2ccccc2)CN(C(=O)OCc2ccccc2)C/C1=C\c1ccccc1`, the GI50 is 4.26 µM in test [6], 2.62 µM in test [2] and 2.01 µM in [7]. Besides, the TGI in [6] was 21 µM; in test [2], 14.3 µM; in test [4] it was 18.9 µM; in [7], 7 µM and 13.6 µM; in [1] it was 13.1 µM; in [8], > 31.6 µM. In test [9], the TGI is > 31.6 µM.
Consider `COC12CC(=O)C(C(C)=O)=C(O)C1(C)c1c(OC(C)=O)c(C)c(O)c(C(C)=O)c1O2` (configuration not stated), for which the TGI was > 100 µM in test [6]; 51.9 µM in [3]; > 100 µM in test [4]; > 100 µM in test [5]; > 100 µM in [7]; > 100 µM in test [8]. Further, the TGI in test [9] was 70.7 µM.
In the case of `CNC1C(O)C(OC2C(N)CC(N)C(OC3OC(C(C)O)C(O)C(O)C3N)C2O)OCC1(C)O` (configuration not stated), the TGI in [1] is > 100 µM.
As to `CCCCCCCCCCCCN(O)C(=O)c1ccccc1`, the TGI in test [3], in test [4], in test [5], in test [7] and in test [9] was > 100 µM throughout.
On to `CCc1nc(N)nc(N)c1-c1ccc(NCCc2ccccc2)c([N+](=O)[O-])c1`, for which, in test [1], the TGI is > 57.5 µM.
`COc1ccc(/C(=N/NC(N)=O)C(c2ccc(OC)cc2)C2C(=O)Oc3ccccc32)cc1` (configuration not stated): the TGI in [6], in [2], in test [4], in test [5], in test [7] and in test [8] was > 100 µM each time. Further, the TGI in test [9] was > 100 µM.
As to `Nc1nc(N)c2nc(CNc3ccc(C(=O)NC(CCCNC(=O)c4ccccc4C(=O)O)C(=O)O)cc3)cnc2n1` (configuration not stated), the GI50 in test [6] was < 0.01 µM and 0.000327 µM; in [3], 24.8 µM and 98 µM; in test [7], 0.122 µM; in test [1] it was 0.00127 µM. Further, the TGI in test [6], in [2], in [3], in test [4], in test [5] and in test [7] was > 100 µM in each case. Also, the TGI in [1], in test [10] and in [9] was > 100 µM in each case.
`CCOC(=O)NC(=O)c1cn(CCN2CCN(C(=O)CCCCCCCCCCNc3ncnc4nc[nH]c34)CC2)c(=O)[nH]c1=O`: the TGI in test [2], in test [3], in test [4], in test [5] and in test [7] was > 100 µM throughout.
As for `CCCCCC/C=C\CCCCCCCCCC1=CC(=O)C=C(OC)C1=O`, the TGI in test [1] is 21.8 µM.
With `COc1cc(-c2cc(=O)c3cc(C)c(C)c(C(=O)O)c3o2)cc(OC)c1OC`, the TGI in test [6], in test [2], in [4], in [5], in test [7] and in test [8] was > 100 µM in each case. In test [9], the TGI is > 100 µM.
With `Cn1c2c(c3ccccc31)CCN(CCCCN1CCN(c3cccc(Cl)c3)CC1)C2=O`, the TGI in test [6] is 10.7 µM; in test [2], 22.9 µM; in test [3], > 100 µM; in [4] it was 15.5 µM; in test [5], 23.7 µM; in [7] it was 25.5 µM. In addition, the TGI in [9] was 28 µM.
Consider `O=C(CC(=O)C1CCOC1=O)C(=O)Nc1ccc(Cl)cc1Cl` (configuration not stated), for which the TGI in [6], in test [2], in [4], in test [5], in test [7] and in test [9] was > 100 µM in each case.
On to `CC1=C(c2cc(C(=O)Nc3cccc(C(F)(F)F)c3)ncn2)Sc2ccccc2N1`, for which the TGI in test [6], in [2], in [3], in test [4], in [5] and in [7] was > 100 µM each time. Moreover, in test [9], the TGI was > 100 µM.
As to `COc1ccc(CNc2nc3c(NC(C)=O)cc(C(F)(F)F)cc3nc2-c2ccccc2)cc1OC`, the TGI in test [6], in [2], in [4], in [5], in test [7] and in test [9] was > 100 µM throughout.
For `CN(C)c1n/c(=N/c2ncn[nH]2)ss1`, the TGI in test [6], in test [2], in test [3], in test [4], in [5] and in test [7] was > 100 µM in each case. In addition, in [9], the TGI is > 100 µM.
On to `O=C(NO)C(=O)Nc1ccc(Cl)cc1[N+](=O)[O-]`, for which the TGI in test [6], in [2], in test [3], in test [4], in [5] and in [7] was > 100 µM throughout. In test [8], the TGI is > 100 µM.
In [1], `COC1=Nc2ccccc2S(=O)(=O)C=C1` came in with a TGI of 20.8 µM.

The record behind these values is PubChem BioAssay (NCI).
